{
  "source": "patent US20180325914A1",
  "about": "“INCREASING STORAGE OF VITAMIN A, VITAMIN D AND/OR LIPIDS” (Salk Institute for Biological Studies, priority 2014, published 2018)",
  "tested_on": "primary HSCs",
  "conditions": "mRNA-Seq expression, Day_6_JQ1",
  "data": [
    {"smiles": "Cc1sc2c(c1C)C(c1ccc(Cl)cc1)=N[C@@H](CC(=O)OC(C)(C)C)c1nnc(C)n1-2", "note": "[JQ1, (S)-tert-butyl 2-(4-(4-chlorophenyl)-2,3,9-trimethyl-6H-thieno[3,2-f][1,2,4]triazolo[4,3-a][1,4]diazepin-6-yl)acetate]", "values": [
      {"measurement": "Nav2 value_2", "result": 5.311},
      {"measurement": "Ndn value_2", "result": 33.2623},
      {"measurement": "Nnmt value_2", "result": 30.0607},
      {"measurement": "Npr2 value_2", "result": 10.1828},
      {"measurement": "Nradd value_2", "result": 15.4656},
      {"measurement": "Nuak1 value_2", "result": 12.6565},
      {"measurement": "Nudt18 value_2", "result": 6.501},
      {"measurement": "Ogdhl value_2", "result": 4.726},
      {"measurement": "Paqr8 value_2", "result": 7.424},
      {"measurement": "Pcolce value_2", "result": 103.689},
      {"measurement": "Pde4dip value_2", "result": 14.9114},
      {"measurement": "Pdia5 value_2", "result": 20.7466},
      {"measurement": "Pgcp value_2", "result": 20.5624},
      {"measurement": "Pgm2 value_2", "result": 36.9612},
      {"measurement": "Pkig value_2", "result": 41.8645},
      {"measurement": "Pla2g4a value_2", "result": 14.8571},
      {"measurement": "Plod3 value_2", "result": 47.8896},
      {"measurement": "Ppp2r5b value_2", "result": 15.5804},
      {"measurement": "Praf2 value_2", "result": 50.8557},
      {"measurement": "Prnp value_2", "result": 204.182},
      {"measurement": "Psd3 value_2", "result": 5.579},
      {"measurement": "Ptger3 value_2", "result": 6.064},
      {"measurement": "Ptgfrn value_2", "result": 24.2749},
      {"measurement": "Ptk2b value_2", "result": 17.1497},
      {"measurement": "Qsox1 value_2", "result": 91.7197},
      {"measurement": "Rasl11a value_2", "result": 68.0496},
      {"measurement": "Rasl11b value_2", "result": 27.3606},
      {"measurement": "Reep5 value_2", "result": 42.7167},
      {"measurement": "Rftn1 value_2", "result": 20.5933},
      {"measurement": "Rhoq value_2", "result": 36.4737},
      {"measurement": "Rian value_2", "result": 23.3478},
      {"measurement": "Samd4 value_2", "result": 15.2321},
      {"measurement": "Scd1 value_2", "result": 23.3211},
      {"measurement": "Sec23a value_2", "result": 28.8101},
      {"measurement": "Sepw1 value_2", "result": 95.2318},
      {"measurement": "Serping1 value_2", "result": 119.681},
      {"measurement": "Setbp1 value_2", "result": 2.434},
      {"measurement": "Shroom3 value_2", "result": 5.757},
      {"measurement": "Slc7a6 value_2", "result": 20.2814},
      {"measurement": "Slc24a3 value_2", "result": 3.111},
      {"measurement": "Snurf value_2", "result": 6.708},
      {"measurement": "Steap2 value_2", "result": 17.4478},
      {"measurement": "Thbs2 value_2", "result": 44.7287},
      {"measurement": "Tmem9 value_2", "result": 20.5522},
      {"measurement": "Tmem176a value_2", "result": 136.733},
      {"measurement": "Tpm2 value_2", "result": 114.662},
      {"measurement": "Ttc19 value_2", "result": 10.9985},
      {"measurement": "Ufsp2 value_2", "result": 21.3133},
      {"measurement": "Ypel5 value_2", "result": 34.2738},
      {"measurement": "Zfp651 value_2", "result": 5.6272},
      {"measurement": "Zmat3 value_2", "result": 18.2014},
      {"measurement": "Zranb3 value_2", "result": 2.608},
      {"measurement": "value_2, gene 2210013O21Rik", "result": 38.055},
      {"measurement": "value_2, gene 2610018G03Rik", "result": 7.783},
      {"measurement": "value_2, gene 2700094K13Rik", "result": 52.964},
      {"measurement": "value_2, gene 2810055F11Rik", "result": 9.372},
      {"measurement": "value_2, gene AI464131", "result": 6.393},
      {"measurement": "value_2, gene Acadsb", "result": 26.5141},
      {"measurement": "value_2, gene Aes", "result": 188.935},
      {"measurement": "value_2, gene Agl", "result": 8.667},
      {"measurement": "value_2, gene Ankrd44", "result": 7.9209},
      {"measurement": "value_2, gene Aplp1", "result": 20.7172},
      {"measurement": "value_2, gene Arhgap1", "result": 99.931},
      {"measurement": "value_2, gene Aurka", "result": 17.2799},
      {"measurement": "value_2, gene Bace1", "result": 40.101},
      {"measurement": "value_2, gene Bmpr1a", "result": 33.5187},
      {"measurement": "value_2, gene Bsg", "result": 560.767},
      {"measurement": "value_2, gene Cacna2d1", "result": 7.615},
      {"measurement": "value_2, gene Calm3", "result": 185.514},
      {"measurement": "value_2, gene Ccdc3", "result": 44.0572},
      {"measurement": "value_2, gene Ccdc102a", "result": 12.129},
      {"measurement": "value_2, gene Ccdc122", "result": 5.501},
      {"measurement": "value_2, gene Ccne1", "result": 13.7889},
      {"measurement": "value_2, gene Cdc42bpg", "result": 9.647},
      {"measurement": "value_2, gene Cenpa", "result": 18.2009},
      {"measurement": "value_2, gene Cfh", "result": 33.8709},
      {"measurement": "value_2, gene Clip3", "result": 25.4738},
      {"measurement": "value_2, gene Cpeb2", "result": 7.639},
      {"measurement": "value_2, gene Cpxm1", "result": 119.242},
      {"measurement": "value_2, gene Ctsf", "result": 19.6316},
      {"measurement": "value_2, gene Cxxc5", "result": 28.6295},
      {"measurement": "value_2, gene Dhcr24", "result": 17.3636},
      {"measurement": "value_2, gene Dynlt3", "result": 74.0523},
      {"measurement": "value_2, gene Efna4", "result": 6.053},
      {"measurement": "value_2, gene Ephb2", "result": 12.3025},
      {"measurement": "value_2, gene Fam26e", "result": 11.6803},
      {"measurement": "value_2, gene Fam168a", "result": 23.5828},
      {"measurement": "value_2, gene Fat1", "result": 68.0733},
      {"measurement": "value_2, gene Fkbp9", "result": 153.585},
      {"measurement": "value_2, gene Fstl1", "result": 883.839},
      {"measurement": "value_2, gene Gadd45g", "result": 151.82},
      {"measurement": "value_2, gene Ggcx", "result": 22.6363},
      {"measurement": "value_2, gene Gjc2", "result": 5.148},
      {"measurement": "value_2, gene Gpam", "result": 13.2457},
      {"measurement": "value_2, gene Gpnmb", "result": 100.919},
      {"measurement": "value_2, gene Gpr153", "result": 15.34},
      {"measurement": "value_2, gene Grb10", "result": 117.152},
      {"measurement": "value_2, gene Gstm4", "result": 11.4343},
      {"measurement": "value_2, gene Gtse1", "result": 16.4741},
      {"measurement": "value_2, gene Gucylb3", "result": 35.4413},
      {"measurement": "value_2, gene Gxylt2", "result": 8.031},
      {"measurement": "value_2, gene Hic1", "result": 40.7263},
      {"measurement": "value_2, gene Hspb6", "result": 15.1361},
      {"measurement": "value_2, gene Htra1", "result": 128.76},
      {"measurement": "value_2, gene Irs2", "result": 11.6492},
      {"measurement": "value_2, gene Itgb5", "result": 206.046}
    ]}
  ]
}
